Test results taken from ChEMBL document CHEMBL3045643, “Synthesis, crystal structure, and anticancer properties of cyclic monocarbonyl analogs of curcumin” (Med Chem Res, 2011).
Calls of active or inactive are those of the source. The rule behind the calls is not given here.

Columns and labels:
HCT-116 [1] = assay: Cytotoxicity against Homo sapiens (human) HCT116 cells at 0.01 to 30 uM by CCK8-based colorimetric analysis; type: functional, cell-based
NCI-H460 = assay: Cytotoxicity against Homo sapiens (human) H460 cells at 0.01 to 30 uM by CCK8-based colorimetric analysis; type: functional, cell-based
ACHN [2] = assay: Cytotoxicity against Homo sapiens (human) ACHN cells at 0.01 to 30 uM by CCK8-based colorimetric analysis; type: functional, cell-based
PANC-1 [3] = assay: Cytotoxicity against Homo sapiens (human) PANC1 cells at 0.01 to 30 uM by CCK8-based colorimetric analysis; type: functional, cell-based
[4] = Cytotoxicity against Homo sapiens (human) […] cells at 0.01 to 30 uM by CCK8-based colorimetric analysis; type: cell-based; settings: wi-38, 30 µM
Calu-1 [5] = assay: Cytotoxicity against Homo sapiens (human) Calu1 cells at 0.01 to 30 uM by CCK8-based colorimetric analysis; type: functional, cell-based
ACHN [6] = assay: Cytotoxicity against Homo sapiens (human) ACHN cells by CCK8-based colorimetric analysis; type: functional, cell-based
Calu-1 [7] = assay: Cytotoxicity against Homo sapiens (human) Calu1 cells by CCK8-based colorimetric analysis; type: functional, cell-based
[8] = Cytotoxicity against Homo sapiens (human) H460 cells by CCK8-based colorimetric analysis; type: functional, cell-based; settings: NCI-H460
PANC-1 [9] = assay: Cytotoxicity against Homo sapiens (human) PANC1 cells by CCK8-based colorimetric analysis; type: functional, cell-based
HCT-116 [10] = assay: Cytotoxicity against Homo sapiens (human) HCT116 cells by CCK8-based colorimetric analysis; type: functional, cell-based

SMILES	Activity (HCT-116 [1])	Activity (NCI-H460)	Activity (ACHN [2])	Activity (PANC-1 [3])	Activity [4]	Activity (Calu-1 [5])	IC50 (ACHN [6]) [µM]	IC50 (Calu-1 [7]) [µM]	IC50 [8] [µM]	IC50 (PANC-1 [9]) [µM]	IC50 (HCT-116 [10]) [µM]
COc1ccccc1/C=C1\C(=O)/C(=C\c2ccccc2OC)c2ccccc21	Active	Active	Active	Active	Non-toxic	Active	–	–	–	–	–
COc1ccc(/C=C2\CN(Cc3ccccc3)C/C(=C\c3ccc(OC)cc3)C2=O)cc1	Active	Active	Active	Active	Non-toxic	Active	–	–	–	–	–
CCOc1ccc(/C=C2\CN(Cc3ccccc3)C/C(=C\c3ccc(OCC)cc3)C2=O)cc1	–	–	–	–	Non-toxic	–	6.9	8.1	5.5	7.2	8.3
O=C1/C(=C/c2cccc(O)c2)CN(Cc2ccccc2)C/C1=C\c1cccc(O)c1	Active	Active	Active	Active	Non-toxic	Active	–	–	–	–	–
O=C1/C(=C/c2ccccc2)CN(Cc2ccccc2)C/C1=C\c1ccccc1	Active	Active	Active	Active	Non-toxic	Active	–	–	–	–	–
